Data as given in paper PMC7592813 (Oncology Research, 2014).
Like-named read-outs stand apart in the source and are kept apart here.

Biological target: T1, recombinant ENOX2 (tNOX) (Homo sapiens, UniProt Q16206)
T1 sequence (Q16206 1-610): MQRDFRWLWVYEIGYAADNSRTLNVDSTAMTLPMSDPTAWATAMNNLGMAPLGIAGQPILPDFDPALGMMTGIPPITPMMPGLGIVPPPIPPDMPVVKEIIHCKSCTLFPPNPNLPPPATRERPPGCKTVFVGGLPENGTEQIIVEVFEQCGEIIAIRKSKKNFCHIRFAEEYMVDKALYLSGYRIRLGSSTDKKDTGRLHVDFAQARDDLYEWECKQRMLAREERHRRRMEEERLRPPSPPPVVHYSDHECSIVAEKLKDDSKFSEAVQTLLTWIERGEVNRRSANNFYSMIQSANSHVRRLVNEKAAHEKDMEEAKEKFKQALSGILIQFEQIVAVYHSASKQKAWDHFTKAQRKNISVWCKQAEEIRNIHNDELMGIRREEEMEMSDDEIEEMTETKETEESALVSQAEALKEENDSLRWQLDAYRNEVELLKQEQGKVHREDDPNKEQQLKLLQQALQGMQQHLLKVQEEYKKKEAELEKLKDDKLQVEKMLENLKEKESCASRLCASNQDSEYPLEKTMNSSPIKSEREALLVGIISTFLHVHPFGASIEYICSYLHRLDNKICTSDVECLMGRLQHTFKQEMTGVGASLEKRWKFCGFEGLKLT
Assay: NADH oxidation, A340
Format: biochemical

2H-1-benzopyran-7-0,1,3-(4-hydroxyphenyl) [ME-143]
EC50 (150 µM NADH, 25 mM Tris-MES pH 7.2, 100 µM GSH, 1 mM KCN, 37 °C, inhibition): ~50 nM

Oc1ccc(C2=Cc3ccc(O)cc3OC2)cc1 [phenoxodiol]
EC50: 330 ± 153 nM
